Data taken from the NIST ThermoML archive (doi:10.1021/je1002829).

Test: xn = mol fraction of the nth substance listed
Conditions: for mass density: 101 kPa, Liquid, Pycnometric method

CCCC(=O)O [butanoic acid] + O
Conditions | mass density, 293.15 K [kg/m3] | mass density, 298.15 K [kg/m3] | mass density, 303.15 K [kg/m3] | mass density, 308.15 K [kg/m3] | surface tension liquid-gas, 293.15 K [mN/m] | surface tension liquid-gas, 298.15 K [mN/m] | surface tension liquid-gas, 303.15 K [mN/m] | surface tension liquid-gas, 308.15 K [mN/m]
x1 = 0.00475 | – | – | – | – | 50.5 | 50.01 | 49.13 | 48.56
x1 = 0.00655 | – | – | – | – | 45.88 | 45.32 | 44.7 | 44.05
x1 = 0.00903 | – | – | – | – | 41.59 | 40.95 | 40.38 | 39.72
x1 = 0.00998 | – | – | – | – | 40.32 | 39.69 | 39.11 | 38.47
x1 = 0.01274 | – | – | – | – | 37.41 | 36.84 | 36.24 | 35.68
x1 = 0.01432 | – | – | – | – | 36.11 | 35.6 | 34.99 | 34.5
x1 = 0.01655 | 1002.55 | 1000.29 | 998.03 | 995.86 | 34.6 | 34.16 | 33.58 | 33.16
x1 = 0.02141 | 1003.38 | 1001.03 | 998.67 | 996.41 | – | – | – | –
x1 = 0.03346 | 1004.38 | 1001.93 | 999.47 | 997.11 | 29.28 | 28.91 | 28.59 | 28.45
x1 = 0.03727 | 1004.49 | 1001.94 | 999.38 | 996.93 | – | – | – | –
x1 = 0.04522 | 1004.3 | 1001.66 | 999.01 | 996.46 | 28.48 | 28.33 | 28.14 | 27.95
x1 = 0.04995 | 1004.13 | 1001.39 | 998.64 | 995.99 | – | – | – | –
x1 = 0.05825 | 1003.61 | 1000.77 | 997.92 | 995.18 | 28.46 | 28.38 | 28.1 | 27.87
x1 = 0.06959 | 1002.83 | 999.9 | 996.96 | 994.11 | – | – | – | –
x1 = 0.07723 | 1002.34 | 999.13 | 995.79 | 992.85 | – | – | – | –
x1 = 0.08723 | – | – | – | – | 28.61 | 28.3 | 27.92 | 27.72
x1 = 0.09004 | 1001.61 | 998.48 | 995.24 | 991.96 | – | – | – | –
x1 = 0.09948 | 1001.12 | 997.91 | 994.7 | 991.51 | 28.52 | 28.24 | 27.88 | 27.67
x1 = 0.1147 | – | – | – | – | 28.39 | 28.17 | 27.84 | 27.63
x1 = 0.1172 | 1000.27 | 996.95 | 993.63 | 990.42 | – | – | – | –
x1 = 0.131 | 999.59 | 996.11 | 992.63 | 989.31 | – | – | – | –
x1 = 0.134 | – | – | – | – | 28.24 | 28.1 | 27.82 | 27.58
x1 = 0.1428 | – | – | – | – | 28.19 | 28.07 | 27.81 | 27.56
x1 = 0.1443 | 998.82 | 995.31 | 991.8 | 988.32 | – | – | – | –
x1 = 0.1767 | 997.16 | 993.56 | 989.96 | 986.45 | 28.21 | 28.01 | 27.79 | 27.47

CCCCCC(=O)O [hexanoic acid] + O
Conditions | mass density, 293.15 K [kg/m3] | mass density, 298.15 K [kg/m3] | mass density, 303.15 K [kg/m3] | mass density, 308.15 K [kg/m3] | surface tension liquid-gas, 293.15 K [mN/m] | surface tension liquid-gas, 298.15 K [mN/m] | surface tension liquid-gas, 303.15 K [mN/m] | surface tension liquid-gas, 308.15 K [mN/m]
x1 = 8e-05 | – | – | – | – | 63.26 | 62.69 | 62.67 | 62.16
x1 = 0.00015 | 998.24 | 997.08 | 995.67 | 994.07 | – | – | – | –
x1 = 0.00016 | – | – | – | – | 56.6 | 56.02 | 56.09 | 56.02
x1 = 0.00023 | – | – | – | – | 52.29 | 51.8 | 51.81 | 51.94
x1 = 0.00032 | – | – | – | – | 48.25 | 47.98 | 47.93 | 48.06
x1 = 0.00037 | – | – | – | – | 46.55 | 46.17 | 45.98 | 46.29
x1 = 0.00043 | 998.28 | 997.12 | 995.68 | 994.07 | – | – | – | –
x1 = 0.00046 | – | – | – | – | 44.03 | 43.54 | 43.22 | 43.67
x1 = 0.00051 | – | – | – | – | 42.83 | 42.62 | 42.44 | 42.6
x1 = 0.0006 | 998.31 | 997.14 | 995.72 | 994.09 | – | – | – | –
x1 = 0.00062 | – | – | – | – | 40.57 | 40.6 | 40.57 | 40.45
x1 = 0.00069 | – | – | – | – | 39.19 | 39.02 | 38.98 | 38.89
x1 = 0.00077 | – | – | – | – | 37.72 | 37.36 | 37.36 | 37.2
x1 = 0.00084 | – | – | – | – | 36.64 | 36.28 | 36.21 | 36.07
x1 = 0.00091 | – | – | – | – | 35.66 | 35.23 | 35.04 | 34.96
x1 = 0.00106 | 998.36 | 997.18 | 995.77 | 994.1 | – | – | – | –
x1 = 0.0011 | – | – | – | – | 33.79 | 33.17 | 32.82 | 32.46
x1 = 0.00115 | – | – | – | – | 33.55 | 32.94 | 32.57 | 32.11
x1 = 0.00143 | 998.42 | 997.22 | 995.77 | 994.12 | – | – | – | –
x1 = 0.00148 | 998.43 | 997.23 | 995.79 | 994.12 | – | – | – | –
x1 = 0.0018 | 998.47 | 997.25 | 995.81 | 994.13 | – | – | – | –
x1 = 0.00195 | 998.49 | 997.28 | 995.82 | 994.15 | – | – | – | –
x1 = 0.00205 | 998.5 | 997.29 | 995.83 | 994.14 | – | – | – | –
x1 = 0.00222 | 998.52 | 997.29 | 995.83 | 994.16 | – | – | – | –
x1 = 0.00228 | 998.54 | 997.31 | 995.84 | 994.16 | – | – | – | –
x1 = 0.0025 | 998.56 | 997.33 | 995.86 | 994.18 | – | – | – | –
x1 = 0.00271 | 998.58 | 997.35 | 995.88 | 994.19 | – | – | – | –
x1 = 0.00289 | 998.62 | 997.37 | 995.89 | 994.19 | – | – | – | –
x1 = 0.00305 | 998.63 | 997.4 | 995.91 | 994.21 | – | – | – | –
x1 = 0.0035 | 998.69 | 997.43 | 995.94 | 994.23 | – | – | – | –

CCCCC(=O)O [pentanoic acid] + O
Conditions | mass density, 293.15 K [kg/m3] | mass density, 298.15 K [kg/m3] | mass density, 303.15 K [kg/m3] | mass density, 308.15 K [kg/m3] | surface tension liquid-gas, 293.15 K [mN/m] | surface tension liquid-gas, 298.15 K [mN/m] | surface tension liquid-gas, 303.15 K [mN/m] | surface tension liquid-gas, 308.15 K [mN/m]
x1 = 0.00015 | 998.24 | 997.08 | 995.67 | 994.07 | – | – | – | –
x1 = 0.00016 | – | – | – | – | 63.92 | 64.63 | 63.6 | 63.01
x1 = 0.00043 | 998.28 | 997.12 | 995.68 | 994.07 | – | – | – | –
x1 = 0.00048 | – | – | – | – | 57.45 | 57.4 | 56.82 | 56.37
x1 = 0.00056 | – | – | – | – | 56.19 | 56.09 | 55.49 | 55.07
x1 = 0.0006 | 998.31 | 997.14 | 995.72 | 994.09 | – | – | – | –
x1 = 0.00083 | – | – | – | – | 52.45 | 52.12 | 51.63 | 51.27
x1 = 0.00099 | – | – | – | – | 50.54 | 50.05 | 49.71 | 49.38
x1 = 0.00106 | 998.36 | 997.18 | 995.77 | 994.1 | – | – | – | –
x1 = 0.00121 | – | – | – | – | 48.25 | 47.66 | 47.43 | 47.13
x1 = 0.00143 | 998.42 | 997.22 | 995.77 | 994.12 | – | – | – | –
x1 = 0.00148 | 998.43 | 997.23 | 995.79 | 994.12 | – | – | – | –
x1 = 0.0015 | – | – | – | – | 45.82 | 45.32 | 44.93 | 44.64
x1 = 0.00173 | – | – | – | – | 44.26 | 43.88 | 43.28 | 43
x1 = 0.0018 | 998.47 | 997.25 | 995.81 | 994.13 | – | – | – | –
x1 = 0.00195 | 998.49 | 997.28 | 995.82 | 994.15 | – | – | – | –
x1 = 0.00196 | – | – | – | – | 42.94 | 42.57 | 41.86 | 41.59
x1 = 0.00205 | 998.5 | 997.29 | 995.83 | 994.14 | – | – | – | –
x1 = 0.00219 | – | – | – | – | 41.78 | 41.26 | 40.63 | 40.36
x1 = 0.00222 | 998.52 | 997.29 | 995.83 | 994.16 | – | – | – | –
x1 = 0.00228 | 998.54 | 997.31 | 995.84 | 994.16 | – | – | – | –
x1 = 0.0025 | 998.56 | 997.33 | 995.86 | 994.18 | – | – | – | –
x1 = 0.00259 | – | – | – | – | 39.97 | 39.16 | 38.8 | 38.54
x1 = 0.00271 | 998.58 | 997.35 | 995.88 | 994.19 | – | – | – | –
x1 = 0.00283 | – | – | – | – | 38.97 | 38.18 | 37.81 | 37.57
x1 = 0.00289 | 998.62 | 997.37 | 995.89 | 994.19 | – | – | – | –
x1 = 0.00299 | – | – | – | – | 38.32 | 37.6 | 37.18 | 36.94
x1 = 0.00305 | 998.63 | 997.4 | 995.91 | 994.21 | – | – | – | –
x1 = 0.00326 | – | – | – | – | 37.25 | 36.51 | 36.1 | 35.9
x1 = 0.00349 | – | – | – | – | 36.38 | 35.61 | 35.15 | 34.97
x1 = 0.0035 | 998.69 | 997.43 | 995.94 | 994.23 | – | – | – | –
